Laboratory results published in patent US20240082238A1, “COMPOSITIONS AND METHODS FOR TREATING CANCER” (UNIVERSITY OF IOWA RESEARCH FOUNDATION, priority 2021, published 2024).

Experiments:
[1] = Cytotoxicity assay (MTS) and bright-field microscopy, LLC-PK1-MDR1 cells; format: cell-based, porcine; details: pig, LLC-PK1-MDR1 cells (overexpressing P-gp), PTX alone, maximum concentration used 50 nM
Protocol: Cytotoxicity assay. Hec50co cells were seeded at 1500 cells per well in 96-well plates for 24 h in a complete medium. Later, the medium was removed and PTX, CIP2b, or CIP (all dissolved in DMSO and diluted in complete medium) were added to cells as either monotherapies or in combinations, and the plates were incubated for 72 hours. Then, the complete medium was removed and MTS reagent in the complete medium was added to wells, and the plates were incubated for 1-4 hours according to the manufacturer's protocol. Finally, the absorbance was recorded at 490 nm using a Spectra Max plus 384 Microplate Spectrophotometer (Molecular Devices, Sunnyvale, CA). Percentage cell viability was expressed as the average absorbance of the test group relative to that of the control group (untreated cells). […] Synergism was detected following the Chou-Talalay method (CI<1 indicates synergism) (Chou T C. Cancer research. 2010; 70(2):440-6, doi: 10.1158/0008-5472.CAN-09-1947) using CompuSyn software (Ver. 1.0). P-gp efflux transporter. Overexpression of the MDR1 gene, reflected in the abundance of the P-gp efflux pump, is one of the major reasons for PTX chemoresistance in cancer. In this study, LLC-PK1-WT and LLC-PK1-MDR1 cell lines were used. MTS assay and the PTX intracellular accumulation experiment were performed as previously described above.

human Topo IIα = biological target: T1, human Topo IIα (Homo sapiens, UniProt P11388); assay: Topoisomerase II inhibition assay (plasmid-based); format: biochemical; details: drug final concentration 100 μM; read-out: percentage of Topo II inhibition
T1 construct: purchased TopoGEN Inc. TG1001-1A
T1 sequence (P11388 whole entry): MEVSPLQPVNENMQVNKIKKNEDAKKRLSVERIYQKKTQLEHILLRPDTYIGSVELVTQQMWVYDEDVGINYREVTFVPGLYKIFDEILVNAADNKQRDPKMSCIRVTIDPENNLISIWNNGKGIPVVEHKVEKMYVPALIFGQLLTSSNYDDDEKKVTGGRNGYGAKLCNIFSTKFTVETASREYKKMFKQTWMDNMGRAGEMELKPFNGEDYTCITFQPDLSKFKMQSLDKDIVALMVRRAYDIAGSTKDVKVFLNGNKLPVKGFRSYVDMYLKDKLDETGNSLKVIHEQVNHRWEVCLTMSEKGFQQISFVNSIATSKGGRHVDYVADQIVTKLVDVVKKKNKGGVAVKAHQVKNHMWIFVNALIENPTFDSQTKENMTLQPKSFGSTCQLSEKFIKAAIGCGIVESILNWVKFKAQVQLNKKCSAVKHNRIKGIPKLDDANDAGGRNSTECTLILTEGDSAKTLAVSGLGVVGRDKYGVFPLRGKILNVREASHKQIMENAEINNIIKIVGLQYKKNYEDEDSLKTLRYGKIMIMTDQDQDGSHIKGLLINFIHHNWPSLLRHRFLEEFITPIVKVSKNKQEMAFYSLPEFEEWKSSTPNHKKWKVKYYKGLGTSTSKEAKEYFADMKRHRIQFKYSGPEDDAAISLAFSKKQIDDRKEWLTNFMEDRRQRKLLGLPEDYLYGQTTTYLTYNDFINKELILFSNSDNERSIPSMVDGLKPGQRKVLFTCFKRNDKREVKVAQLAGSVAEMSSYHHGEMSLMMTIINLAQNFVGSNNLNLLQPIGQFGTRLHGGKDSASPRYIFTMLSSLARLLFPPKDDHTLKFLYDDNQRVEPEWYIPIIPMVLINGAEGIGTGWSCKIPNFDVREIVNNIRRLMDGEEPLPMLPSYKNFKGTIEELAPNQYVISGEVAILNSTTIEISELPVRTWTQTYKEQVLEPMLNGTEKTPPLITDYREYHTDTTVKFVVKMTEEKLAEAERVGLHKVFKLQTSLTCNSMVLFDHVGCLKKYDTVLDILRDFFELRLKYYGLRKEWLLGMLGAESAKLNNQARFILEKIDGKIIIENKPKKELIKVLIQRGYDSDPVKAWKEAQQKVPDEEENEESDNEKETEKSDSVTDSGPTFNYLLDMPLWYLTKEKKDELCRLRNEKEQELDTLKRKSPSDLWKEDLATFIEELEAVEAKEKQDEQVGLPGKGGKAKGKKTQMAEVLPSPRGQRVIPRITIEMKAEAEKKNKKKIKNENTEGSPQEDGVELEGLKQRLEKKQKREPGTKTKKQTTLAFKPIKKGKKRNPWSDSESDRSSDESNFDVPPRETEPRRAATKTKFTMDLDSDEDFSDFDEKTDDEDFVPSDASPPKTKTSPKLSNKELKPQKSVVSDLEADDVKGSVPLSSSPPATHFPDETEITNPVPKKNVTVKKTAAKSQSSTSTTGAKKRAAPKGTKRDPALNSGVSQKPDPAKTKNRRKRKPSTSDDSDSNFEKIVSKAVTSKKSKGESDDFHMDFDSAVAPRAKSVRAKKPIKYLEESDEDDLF
Protocol: Topoisomerase II inhibition assay. A plasmid-based Topo II assay (Cat. No. TG1001-1A, TopoGEN Inc., Buena Vista, CO) was performed according to the manufacturer's instructions. In this experiment, 1 μL of tested compounds (PTX, CIP, CIP2b, ETO) at a concentration of 2 mM was mixed with 4 μL of the reaction buffer (mixture of buffer A (0.5 M Tris-HCl (pH 8), 1.50 M NaCl, 100 mM MgCl2, 5 mM Dithiothreitol, 300 μg BSA/mL) and buffer B (10× ATP Buffer), and deionized water was added to make 18 μL solution. This was followed by adding 1 μL of catenated DNA and 1 μL of human Topo IIα (8 U/μL) (drug final concentration was 100 μM). Additionally, decatenated DNA (De-CT DNA) and catenated DNA (CT DNA)±Topo II were used as a control (i.e., not containing drugs). Moreover, relaxed DNA was added as another control in this assay. Similar to Topo I assay, samples were then incubated on a heating block set at 37° C. for 30 minutes. Then, the reaction was stopped by the addition of a 5× stop buffer. Samples were then loaded directly into the wells of a 1% agarose gel containing 1 μg/mL ethidium bromide. The gel was run at 150 V until the dye front had traveled approximately 5 cm (run time was approximately 2 h). The gel was then washed with deionized water for 30 minutes before imaging. The image was taken using an Invitrogen iBright CL1500 Imaging System. The intensity of the final bands in the gel was quantified using ImageJ, and the results are expressed as the percentage of Topo II inhibition.

Hec50co tumors = assay: In vivo tumor accumulation of PTX-OG after peritumoral SC injection; set-up: species or system athymic Nu/Nu mice; details: 0.1 mg/kg PTX-OG SC peritumoral, 24 h
Protocol: Effect of drug combination on the in vivo tumor accumulation of PTX In this study, athymic Nu/Nu mice were challenged with 1×10^6 of Hec50co tumor cells per mouse on day zero of the experiment. When the tumor grew to a palpable size range of 100-150 mm^3, as measured by Equation 2, treatments were administered SC at the tumor site (peritumoral). Treatment groups (n=3 per group) included: (i) DPBS treated mice, 0.1 mg/kg PTX-OG, and 0.1 mg/kg PTX-OG+5 mg/kg CIP2b. After 24 hours, mice were euthanized, and tumors were collected and submerged in Hank's Balanced Salt Solution (HBSS) with calcium and magnesium. Tumors were then taken out of HBSS (one at a time to maintain cell viability), placed on a Petri dish, and mechanically minced with a sterile scalpel and forceps into small pieces. Tumor pieces were transferred to 50 mL tubes containing 10 mL of the pre-warmed (37° C.) sterile cell dissociation buffer (HBSS containing 50,000 U of collagenase IV and 100,000 U of DNase I). Samples were incubated at 37° C. under continuous rotation at 300 rpm for 60 minutes in the incubator-shaker. Then, cell suspensions were filtered through a 70 μm cell strainer then a 40 μm cell strainer to remove any aggregates. […] Finally, cell suspensions were acquired using a FACSCalibur flow cytometer, and data were analyzed using FlowJo software.

CC(=O)O[C@H]1C(=O)[C@@]2(C)[C@H]([C@H](OC(=O)c3ccccc3)[C@]3(O)C[C@H](OC(=O)[C@H](O)[C@@H](NC(=O)c4ccccc4)c4ccccc4)C(C)=C1C3(C)C)[C@]1(OC(C)=O)CO[C@@H]1C[C@@H]2O [PTX, paclitaxel]
IC50 at 72 h [1]: > 50 nM
inhibition at 100 µM (human Topo IIα): 8%
in vivo intracellular accumulation of PTX-OG by tumor cells vs untreated control (Hec50co tumors): marginal in vivo intracellular accumulation
